Where a SMILES comes first, the peptide text is derived from it. [ ]: non-standard residue; d: D form.
What was measured:
[1] = tested on: MDA-MB-231 cells; assay: Cell membrane integrity by CellMask Deep Red staining; type: cell-based, human; details: 25 µM, 24 h
Protocol: MDA-MB-231 cells were seeded in a 24-well plate (Thermo Fisher Scientific, 142475) containing sterilized coverslips (Blue star, Microscopic cover glass circular 12 mm 10 gm) at a cell density of 3 × 10^4 cells per well. 24 h post-seeding, cells were treated with DpPorA DE peptide, 5-FAM-DpPorA DE peptide, or a corresponding concentration of DDM. After 24 h of treatment, cells were stained with CellMask Deep Red (Thermo Fisher Scientific, C10046; 1:4000 dilution in PBS) for 5 min at 37 °C. After membrane staining, the cells were washed with PBS and fixed in 2% PFA (Himedia, TCL119) for 5 min. After PBS wash, the coverslips were carefully removed from the wells and mounted with ProLong™ Gold Antifade Mountant (Invitrogen, P10144). The cells were immediately visualized within 60 min using the Carl Zeiss Axio Observer fluorescence microscope. Fluorescence was quantified by drawing the ROI around individual cells to measure the green channel intensity (5-FAM-DpPorA DE). Integrated Density was measured using ImageJ software for 50 cells per group. […]
g) Preparation of DDM and peptides for testing on cancer cells
Lyophilized DpPorA, LpPorA, DpPorA DE, LpPorA DE and 5-FAM-DpPorA DE were reconstituted in 0.1% DDM [1 µL of 100 µg mL-1 DDM (Sigma-Aldrich Merck, D5172) in PBS (Gibco - 14040)], resulting in a peptide concentration of 1.7 mM. Subsequent concentrations were diluted with DMEM, 10% FBS, and 1% Penicillin /Streptomycin-containing media. (Supplementary Table 2) h) Cell membrane integrity analysis and statistics
Immunofluorescence (IF) images were analyzed to assess the impact of different treatments on cell membrane integrity. Cells were categorized into Intact and Disrupted groups based on membrane integrity observed by CellMask cell membrane staining. We evaluated a t least 100 cells for each group - Control, DDM-treated cells and peptide-treated cells- with independent analysis done by a student blinded to the groups' identity . […]
indicating a loss of cell membrane integrity. This categorization provided a clear and systematic approach to quantify the effects of various treatments on cell membrane integrity.
For three independent experiments, data in bar graphs represent mean (± standard deviation) fold change relative to Control groups. Differences between the two datasets were assessed using Welch’s test. Statistical significance is indicated as: *p<0.05, **p<0.01, ***p<0.001,

[2] = tested on: MDA-MB-231 cells; type: cell-based, human; details: 10 µM and 20 µM, 24 h, MTT, n = 3
Protocol: The MDA-MB-231 cell line was obtained from ATCC (Kind gift from Dr. Annapoorni Rangarajan, Indian Institute of Science, Bengaluru, Karnataka, India) and tested negative for mycoplasma contamination. Cells were cultured in DMEM (Gibco, 11965-092) supplemented with 10% FBS (Thermo Fisher Scientific, 10270-106) and Penicillin (100 Units/mL) /Streptomycin (100 µg/mL) (Thermo Fisher Scientific, 15070-063). […] Cell proliferation was measured 24 h after the addition of Peptide/ DDM using MTT assay (3-(4,5-dimethylthiazol-2-yl)-2,5-diphenyltetrazolium bromide, M6494, Thermo Fischer Scientific). […] The purple-colored formazan crystals were dissolved by adding 100 µL DMSO (D5879, Sigma Aldrich), and the absorbance at 570 nm was measured using a plate reader (EMax plus microplate reader). […]
Immunofluorescence (IF) images were analyzed to assess the impact of different treatments on cell membrane integrity. […] We evaluated a t least 100 cells for each group - Control, DDM-treated cells and peptide-treated cells- with independent analysis done by a student blinded to the groups' identity . […]
indicating a loss of cell membrane integrity. This categorization provided a clear and systematic approach to quantify the effects of various treatments on cell membrane integrity. […]

SMILES	Cell number, Disrupted phenotype [1]	Cell number, Intact phenotype [1]	cells with Disrupted membrane phenotype ([1]; at least 100 cells)	cells with Intact membrane phenotype ([1]; at least 100 cells)	change in cell viability [2]
CC[C@@H](C)[C@@H](NC(=O)[C@H](N)CCSC)C(=O)N[C@H](CC(=O)O)C(=O)N[C@H](CCC(N)=O)C(=O)N[C@@H](C(=O)N[C@@H](C(=O)N[C@H](CCC(=O)O)C(=O)N[C@@H](C(=O)N[C@H](Cc1ccccc1)C(=O)NCC(=O)N[C@H](CCC(N)=O)C(=O)N[C@H](CC(C)C)C(=O)NCC(=O)N[C@@H](C(=O)N[C@H](Cc1ccccc1)C(=O)N[C@H](CC(C)C)C(=O)NCC(=O)NCC(=O)N[C@H](Cc1ccccc1)C(=O)NCC(=O)N[C@H](CC(N)=O)C(=O)N[C@@H](C(=O)N[C@H](Cc1ccccc1)C(=O)N[C@H](CCCCN)C(=O)NCC(=O)N[C@H](CC(C)C)C(=O)N[C@H](CCCCN)C(=O)N[C@H](C)C(=O)N[C@@H](C(=O)N[C@@H](C(=O)N[C@H](C)C(=O)N[C@@H](C(=O)N[C@@H](C(=O)N[C@@H](C(=O)N[C@H](CCCCN)C(=O)N[C@H](Cc1c[nH]c2ccccc12)C(=O)N[C@@H](C(=O)N[C@H](C)C(=O)N[C@H](C)C(=O)N[C@H](CCCCN)C(=O)O)[C@H](C)O)C(C)C)[C@H](C)CC)[C@H](C)O)[C@H](C)CC)C(C)C)[C@H](C)CC)[C@H](C)O)[C@H](C)CC)[C@H](C)O)[C@H](C)CC [DpPorA DE] (H-[dM][dI][dD][dQ][dI][dT][dE][dI][dF]G[dQ][dL]G[dT][dF][dL]GG[dF]G[dN][dI][dF][dK]G[dL][dK][dA][dV][dI][dA][dT][dI][dV][dK][dW][dT][dA][dA][dK]-OH; N-terminus and C-terminus assumed)	158	1	99.37%	0.63%	
CC[C@@H](C)[C@@H](NC(=O)[C@H](N)CCSC)C(=O)N[C@H](CC(=O)O)C(=O)N[C@H](CCC(N)=O)C(=O)N[C@@H](C(=O)N[C@@H](C(=O)N[C@H](CCC(=O)O)C(=O)N[C@@H](C(=O)N[C@H](Cc1ccccc1)C(=O)NCC(=O)N[C@H](CCC(N)=O)C(=O)N[C@H](CC(C)C)C(=O)NCC(=O)N[C@@H](C(=O)N[C@H](Cc1ccccc1)C(=O)N[C@H](CC(C)C)C(=O)NCC(=O)NCC(=O)N[C@H](Cc1ccccc1)C(=O)NCC(=O)N[C@H](CC(N)=O)C(=O)N[C@@H](C(=O)N[C@H](Cc1ccccc1)C(=O)N[C@H](CCCCN)C(=O)NCC(=O)N[C@H](CC(C)C)C(=O)N[C@H](CCCCN)C(=O)N[C@H](CC(=O)O)C(=O)N[C@@H](C(=O)N[C@@H](C(=O)N[C@H](CCC(=O)O)C(=O)N[C@@H](C(=O)N[C@@H](C(=O)N[C@@H](C(=O)N[C@H](CCCCN)C(=O)N[C@H](Cc1c[nH]c2ccccc12)C(=O)N[C@@H](C(=O)N[C@H](C)C(=O)N[C@H](C)C(=O)N[C@H](CCCCN)C(=O)O)[C@H](C)O)C(C)C)[C@H](C)CC)[C@H](C)O)[C@H](C)CC)C(C)C)[C@H](C)CC)[C@H](C)O)[C@H](C)CC)[C@H](C)O)[C@H](C)CC [DpPorA] (H-[dM][dI][dD][dQ][dI][dT][dE][dI][dF]G[dQ][dL]G[dT][dF][dL]GG[dF]G[dN][dI][dF][dK]G[dL][dK][dD][dV][dI][dE][dT][dI][dV][dK][dW][dT][dA][dA][dK]-OH; N-terminus and C-terminus assumed)					no significant change in viability
